Test system: HeLa viability, CellTiter-Glo ATP luminescence, 8-48 h
Assay: HeLa cell viability over time, late-stage follow-up, mechanism study for HRAS target identification, CellTiter-Glo ATP luminescence, 8-48 h, dry powder (AID 720609)

In the case of `C#CCCCC(=O)NCCOCCOCCOc1ccc(N(C(=O)CCl)C(C(=O)NCCc2ccccc2)c2cccs2)cc1Cl` (stereo not drawn), the AC50 (measured here: AC50 at 8 h) is reported as 6100 nM, the AC50 (measured here: AC50 at 24 h) is reported as 3100 nM and the AC50 (measured here: AC50 at 48 h) is reported as 4790 nM.

With `COc1ccc(N(C(=O)CCl)C(C(=O)NCCc2ccccc2)c2cccs2)cc1Cl` (stereo not drawn) the AC50 (measured here: AC50 at 8 h) was 725 nM, the AC50 (measured here: AC50 at 24 h) was 323 nM and the AC50 (measured here: AC50 at 48 h) was 699 nM.

For `COC(=O)c1ccc([C@@H]2c3[nH]c4ccccc4c3C[C@@H](C(=O)OC)N2C(=O)CCl)cc1`, the AC50 (measured here: AC50 at 8 h) was 512 nM, the AC50 (measured here: AC50 at 24 h) was 609 nM and the AC50 (measured here: AC50 at 48 h) was 602 nM.

Molecule `CC(C)(C)OC(=O)NCCOCCOCCOc1ccc(N(C(=O)CCl)C(C(=O)NCCc2ccccc2)c2cccs2)cc1Cl` (stereo not drawn) has an AC50 (measured here: AC50 at 8 h) of 515 nM, an AC50 (measured here: AC50 at 24 h) of 564 nM and an AC50 (measured here: AC50 at 48 h) of 946 nM.

For `CCC(=O)N(c1ccc(OC)c(Cl)c1)C(C(=O)NCCc1ccccc1)c1cccs1` (stereo not drawn), the AC50 (measured here: AC50 at 24 h) was > 70000 nM.
